Laboratory results reported in ChEMBL document CHEMBL5518237, “Design of Novel 2-Phenylquinazolin-4-amines as Selective CYP1B1 Inhibitors for Overcoming Paclitaxel Resistance in A549 Cells” (J Med Chem, 2024).
Activity calls are given as the source filed them. No cut-off for these calls is given here.

How the values were obtained:
[1] = target: T1, Cytochrome P450 1B1 (Homo sapiens, UniProt Q16678); experiment: Inhibition of human recombinant CYP1B1 using 7-ethoxyresorufin as substrate preincubated with enzyme for 5 mins followed by fluorescent substrate and NADPH addition and measured after 35 mins by EROD assay; format: ADME
T1 sequence (Q16678 whole entry): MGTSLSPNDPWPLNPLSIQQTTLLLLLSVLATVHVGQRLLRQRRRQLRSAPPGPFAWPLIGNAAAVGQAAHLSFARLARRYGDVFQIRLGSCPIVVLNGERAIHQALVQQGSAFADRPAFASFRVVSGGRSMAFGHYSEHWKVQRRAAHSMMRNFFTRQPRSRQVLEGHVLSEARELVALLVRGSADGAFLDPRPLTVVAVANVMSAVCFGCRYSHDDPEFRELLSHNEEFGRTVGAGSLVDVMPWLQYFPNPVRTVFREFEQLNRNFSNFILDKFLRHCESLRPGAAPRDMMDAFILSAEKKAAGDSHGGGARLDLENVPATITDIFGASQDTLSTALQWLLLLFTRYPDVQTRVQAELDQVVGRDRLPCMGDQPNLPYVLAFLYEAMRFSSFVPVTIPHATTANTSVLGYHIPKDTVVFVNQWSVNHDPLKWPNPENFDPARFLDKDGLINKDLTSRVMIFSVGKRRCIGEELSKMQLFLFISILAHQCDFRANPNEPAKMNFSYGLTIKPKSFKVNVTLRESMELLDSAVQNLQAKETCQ

[2] = target: T2, Cytochrome P450 1A1 (Homo sapiens, UniProt P04798); experiment: Inhibition of human recombinant CYP1A1 using 7-ethoxyresorufin as substrate preincubated with enzyme for 5 mins followed by fluorescent substrate and NADPH addition and measured after 15 mins by EROD assay; format: ADME
T2 sequence (P04798 whole entry): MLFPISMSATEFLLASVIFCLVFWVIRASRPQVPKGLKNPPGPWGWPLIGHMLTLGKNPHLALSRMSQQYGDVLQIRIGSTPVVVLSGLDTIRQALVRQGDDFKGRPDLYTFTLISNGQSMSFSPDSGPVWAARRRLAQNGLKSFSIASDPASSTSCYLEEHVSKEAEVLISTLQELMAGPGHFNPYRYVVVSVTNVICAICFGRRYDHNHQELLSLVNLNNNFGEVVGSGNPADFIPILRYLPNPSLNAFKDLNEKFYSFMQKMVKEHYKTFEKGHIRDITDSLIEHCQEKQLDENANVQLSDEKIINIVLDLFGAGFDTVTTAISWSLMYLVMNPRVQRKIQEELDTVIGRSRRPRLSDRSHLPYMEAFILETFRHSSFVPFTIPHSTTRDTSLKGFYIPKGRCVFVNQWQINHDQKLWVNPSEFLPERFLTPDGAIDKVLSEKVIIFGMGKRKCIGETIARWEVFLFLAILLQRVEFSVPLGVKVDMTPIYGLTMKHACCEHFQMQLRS

[3] = target: T3, Cytochrome P450 1A2 (Homo sapiens, UniProt P05177); experiment: Inhibition of human recombinant CYP1A2 using 7-ethoxyresorufin as substrate preincubated with enzyme for 5 mins followed by fluorescent substrate and NADPH addition and measured after 50 mins by EROD assay; format: ADME
T3 sequence (P05177 whole entry): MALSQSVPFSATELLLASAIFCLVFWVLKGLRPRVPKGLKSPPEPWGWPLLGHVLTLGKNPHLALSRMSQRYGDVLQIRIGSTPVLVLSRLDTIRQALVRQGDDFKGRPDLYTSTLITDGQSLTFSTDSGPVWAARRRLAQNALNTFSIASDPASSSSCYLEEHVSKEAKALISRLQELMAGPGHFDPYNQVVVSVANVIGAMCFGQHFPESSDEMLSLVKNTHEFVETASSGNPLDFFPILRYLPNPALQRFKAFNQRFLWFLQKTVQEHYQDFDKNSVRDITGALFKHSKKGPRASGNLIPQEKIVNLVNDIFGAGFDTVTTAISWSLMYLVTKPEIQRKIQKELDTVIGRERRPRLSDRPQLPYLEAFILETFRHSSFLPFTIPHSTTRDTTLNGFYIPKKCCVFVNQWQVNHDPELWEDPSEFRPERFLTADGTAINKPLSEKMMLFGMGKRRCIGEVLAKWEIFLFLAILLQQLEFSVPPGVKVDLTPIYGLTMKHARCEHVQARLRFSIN

[4] = tested on: CYP1A2 versus CYP1B1; experiment: (§1) Selectivity ratio of IC50 for Inhibition of human recombinant CYP1A2 to IC50 for Inhibition of human recombinant CYP1B1; format: ADME; conditions: recombinant CYP1A2 and recombinant CYP1B1, read-out: Ratio IC50
[5] = target: T4, CYP1B1 (Homo sapiens, UniProt Q16678); experiment: Inhibition of human recombinant CYP1B1 using 7-ethoxyresorufin as substrate at 1 uM preincubated with enzyme for 5 mins followed by fluorescent substrate and NADPH addition and measured after 35 mins by EROD assay; format: ADME; conditions: recombinant CYP1B1, probe 7-ethoxyresorufin, time 40 min
T4 sequence (Q16678 whole entry): T1 sequence (Q16678 whole entry)

[6] = target: T4, CYP1B1; experiment: Inhibition of human recombinant CYP1B1 using 7-ethoxyresorufin as substrate at 0.01 uM preincubated with enzyme for 5 mins followed by fluorescent substrate and NADPH addition and measured after 35 mins by EROD assay; format: ADME; conditions: recombinant CYP1B1, probe 7-ethoxyresorufin, time 40 min
[7] = tested on: CYP1A1 versus CYP1B1; experiment: (§2) Selectivity ratio of IC50 for Inhibition of human recombinant CYP1A1 to IC50 for Inhibition of human recombinant CYP1B1; format: ADME; conditions: recombinant CYP1A1 and recombinant CYP1B1, read-out: Ratio IC50
[8] = n-Octanol/PBS partition coefficient, log D of the radiolabeled compound at 0.37 MBq at pH 7.4 by gamma-counting analysis; format: physicochemical
[9] = Drug uptake in human A549 cells using radiolabeled compound at 0.037 MBq incubated for 120 mins by gamma-counting analysis; format: ADME, cell-based; conditions: a549, 2 h
[10] = Drug uptake in human HCT-116 cells using radiolabeled compound at 0.037 MBq incubated for 120 mins by gamma-counting analysis; format: ADME, cell-based; conditions: hct-116, 2 h
[11] = Drug uptake in human HEK293T cells using radiolabeled compound at 0.037 MBq incubated for 120 mins by gamma-counting analysis; format: ADME, cell-based; conditions: hek-293t, 2 h
[12] = as §2; format: ADME; conditions: recombinant enzyme
[13] = tested on: A549; experiment: Inhibition of tumor metastasis in DMBA-stimulated PTX resistant human A549 cells assessed as inhibition of cell migration by measuring decrease in crawling ability of cells at 2.5 to 10 uM incubated for 48 hrs by wound healing assay; format: functional, cell-based; conditions: dose 2.5-10 µM
[14] = tested on: A549; experiment: Reversal of DMBA-stimulated PTX resistance in human A549 cells assessed as decrease in cell viability at 1.25 to 10 uM incubated for 24 hrs in presence of DMBA and paclitaxel by MTT assay; format: functional, cell-based; conditions: dose 1.25-10 µM
[15] = n-Octanol/water partition coefficient, logP of the compound by HPLC analysis; format: physicochemical
[16] = tested on: A549; experiment: Induction of apoptosis in DMBA-stimulated PTX resistant human A549 cells assessed as apoptosis rate at 5 uM incubated for 24 hrs by flow cytometry (reference value: 6.67 +/- 1.03%); format: functional
[17] = as §1; format: ADME; conditions: recombinant enzyme
[18] = tested on: A549; experiment: Cytotoxicity against human A549 cells assessed as reduction in cell viability at 0.625 to 20 uM incubated for 48 hrs by MTT assay; format: toxicity, cell-based; conditions: a549, 48 h, dose 0.625-20 µM
[19] = tested on: HEK-293T; experiment: Cytotoxicity against human HEK293T cells assessed as reduction in cell viability at 0.625 to 20 uM incubated for 48 hrs by MTT assay; format: toxicity, cell-based; conditions: dose 0.625-20 µM
[20] = n-octanol/water, read-out: logP

| IC50 [1] | IC50 [2] | IC50 [3] | inhibition at 35 min, 1 µM [5] | inhibition at 35 min, 0.01 µM [6] | Compound | selectivity ratio [4] | other results |
| --- | --- | --- | --- | --- | --- | --- | --- |
| 0.02 nM | 12.3 nM | 2030 nM | 96.7% | 94.5% | Cl.Nc1nc(-c2ccc(I)cc2)nc2ccccc12 | 101000 | logP ([15]; octanol/water): 2.71; Activity [16]: 18.53%; Ratio IC50 [12]: 617.5 |
| 2.48 nM | 248 nM | 5840 nM | 91.8% | 84.1% | COc1ccc(-c2nc(N)c3ccccc3n2)cc1 | 2360 | selectivity ratio [7]: 99.9 |
| 0.24 nM | 36.7 nM | 727 nM |  |  | FCCNc1nc(-c2ccc(I)cc2)nc2ccccc12 [listing 1 of 2 here] |  | logD ([8]; n-octanol/PBS, read-out: logD): 3.34; Drug uptake [9]: Active; Drug uptake [10]: Active; Drug uptake [11]: Active; Ratio IC50 [17]: 3029.17; Ratio IC50 [12]: 151.87 |
| 1.69 nM | 263 nM | 5340 nM | 97.8% | 89.6% | Cc1ccc(-c2nc(N)c3ccccc3n2)cc1 | 3160 | selectivity ratio [7]: 156 |
|  | 85.8 nM | 1500 nM | 95.2% | 93.7% | CCNc1nc(-c2ccc(I)cc2)nc2ccccc12.Cl |  | Activity [18]: Non-Toxic; logP [15, 20]: 3.81; Activity [16]: 26.15%; Activity [19]: Non-Toxic; Ratio IC50 [12]: 2.07 10^6No_unit |
| 0.000747 nM | 26.5 nM | 1110 nM |  |  | CNc1nc(-c2ccc(I)cc2)nc2ccccc12 [listing 1 of 2 here] |  | logD ([8]; octanol/water): 3.55; Drug uptake [9]: Active; Drug uptake [10]: Active; Drug uptake [11]: Active; Ratio IC50 [17]: 1.49 10^6No_unit; Ratio IC50 [12]: 3.54 10^4No_unit |
| 0.15 nM | 33.2 nM | 604 nM | 95.5% | 90.1% | Cl.FCCNc1nc(-c2ccc(I)cc2)nc2ccccc12 | 4030 | Activity [18]: Non-Toxic; logP [15, 20]: 3.91; Activity [16]: 21.05%; Activity [19]: Non-Toxic; selectivity ratio [7]: 221 |
|  |  |  | 95.3% | 32.8% | CC(C)Nc1nc(-c2ccc(I)cc2)nc2ccccc12 |  |  |
| 0.49 nM | 104 nM | 1990 nM | 96.4% | 82.7% | Nc1nc(-c2ccc(Br)cc2)nc2ccccc12 | 4060 | logP [15, 20]: 2.12; selectivity ratio [7]: 211 |

Further lines, the compound ahead of its results:

| Compound | IC50 [1] | IC50 [2] | IC50 [3] | inhibition at 35 min, 1 µM [5] | inhibition at 35 min, 0.01 µM [6] | selectivity ratio [4] | other results |
| --- | --- | --- | --- | --- | --- | --- | --- |
| Nc1nc(-c2ccc(Br)cc2)nc2c1ccc1ccccc12 | 3.07 nM | 28.1 nM | 784 nM | 95.4% | 80.6% | 256 | selectivity ratio [7]: 9.16 |
| CCNc1nc(-c2ccc(I)cc2)nc2ccccc12 [listing 1 of 2 here] | 0.000205 nM | 1.63 nM | 968 nM |  |  | 4.72e+06 | logD ([8]; n-octanol/PBS, read-out: logD): 3.54; Drug uptake [9]: Active; Drug uptake [10]: Active; Drug uptake [11]: Active; Ratio IC50 [12]: 7.95 10^5No_unit |
| CCNc1nc(-c2ccc(I)cc2)nc2ccccc12 [listing 2 of 2 here] |  |  |  |  |  |  | inhibition [13]: Active; Activity [14]: Active |
| Nc1nc(-c2ccc(I)cc2)nc2ccccc12 |  |  |  |  |  |  | inhibition [13]: Active |
| CNc1nc(-c2ccc(I)cc2)nc2ccccc12 [listing 2 of 2 here] |  |  |  |  |  |  | inhibition [13]: Active; Activity [14]: Active |
| FCCNc1nc(-c2ccc(I)cc2)nc2ccccc12 [listing 2 of 2 here] |  |  |  |  |  |  | inhibition [13]: Active; Activity [14]: Active |
| Ic1ccc(-c2nc(Nc3ccccc3)c3ccccc3n2)cc1 |  |  |  | 60.4% | 7.25% |  |  |
| Nc1nc(-c2cccc(Cl)c2)nc2ccccc12 |  |  |  | 74.4% | 25.8% |  |  |
| Ic1ccc(-c2nc(N3CCOCC3)c3ccccc3n2)cc1 |  |  |  | 93.8% | 51.8% |  |  |
